Test results taken from PubChem BioAssay AID1963978 (Molecular Pharmacology Branch, DTP, NCI, 2024).
Several values for one entry are separate records, joined by “and”; a condition that tells them apart may be missing. Equal entries are not always repeated.

Tested on: 616215-338-R-J1-PDC spheroids with HUVEC/MSC, viability
Experiment: Anticancer human tumor 616215-338-R-J1-PDC patient-derived colon adenocarcinoma cell line growth inhibition [PI3K]
Settings: for viability, T/C: stronger effect = lower value
How it was run: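 Tumor cells were combined with HUVEC and MSCs into spheroids, then dosed with PI3K-inhibitor combinations over half-log ranges capped near clinical Cmax or 10 microM.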
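Also: spheroids exposed to agents for seven days before the viability read.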

CNC(=O)c1ccc(N2C(=S)N(c3ccc(C#N)c(C(F)(F)F)c3)C(=O)C2(C)C)cc1F
viability, T/C (compound 0.0316 µM): 100% [middle of 4 runs] | viability, T/C (compound 0.1 µM): 102% [middle of 4 runs] | viability, T/C (compound 0.316 µM): 100% [middle of 4 runs] | viability, T/C (compound 1 µM): 93.9% and 100% and 102% | viability, T/C (compound 3.16 µM): 101% [middle of 4 runs] | viability, T/C (compound 10 µM): 104% [middle of 4 runs] | IC50 (curve of compound): > 10 µM

CCCS(=O)(=O)Nc1ccc(F)c(C(=O)c2c[nH]c3ncc(-c4ccc(Cl)cc4)cc23)c1F + CC(Nc1ccc2c(c1)OCCn1cc(N3C(=O)OCC3C(F)F)nc1-2)C(N)=O
IC50 (curve of first compound, second compound 0.00316 µM): 4.92 µM | IC50 (curve of first compound, second compound 0.01 µM): 4.9 µM | IC50 (curve of first compound, second compound 0.0316 µM): 4.61 µM | IC50 (curve of first compound, second compound 0.1 µM): 4.47 µM | IC50 (curve of first compound, second compound 0.316 µM): 4.68 µM | IC50 (curve of first compound, second compound 1 µM): 3.81 µM | viability, T/C (second compound 0.00316 µM, first compound 0.0316 µM): 91.3% | viability, T/C (second compound 0.00316 µM, first compound 0.1 µM): 92.7% | viability, T/C (second compound 0.00316 µM, first compound 0.316 µM): 90.8% | viability, T/C (second compound 0.00316 µM, first compound 1 µM): 88.8% | viability, T/C (second compound 0.00316 µM, first compound 3.16 µM): 79.9% | viability, T/C (second compound 0.00316 µM, first compound 10 µM): 2.03% | viability, T/C (second compound 0.01 µM, first compound 0.0316 µM): 97.9% | viability, T/C (second compound 0.01 µM, first compound 0.1 µM): 93.1% | viability, T/C (second compound 0.01 µM, first compound 0.316 µM): 92.2% | viability, T/C (second compound 0.01 µM, first compound 1 µM): 92.9% | viability, T/C (second compound 0.01 µM, first compound 3.16 µM): 79% | viability, T/C (second compound 0.01 µM, first compound 10 µM): 2.65% | viability, T/C (second compound 0.0316 µM, first compound 0.0316 µM): 94.6% | viability, T/C (second compound 0.0316 µM, first compound 0.1 µM): 103% | viability, T/C (second compound 0.0316 µM, first compound 0.316 µM): 91.3% | viability, T/C (second compound 0.0316 µM, first compound 1 µM): 95.4% | viability, T/C (second compound 0.0316 µM, first compound 3.16 µM): 72.9% | viability, T/C (second compound 0.0316 µM, first compound 10 µM): 3.28% | viability, T/C (second compound 0.1 µM, first compound 0.0316 µM): 107% | viability, T/C (second compound 0.1 µM, first compound 0.1 µM): 98% | viability, T/C (second compound 0.1 µM, first compound 0.316 µM): 92.7% | viability, T/C (second compound 0.1 µM, first compound 1 µM): 103% | viability, T/C (second compound 0.1 µM, first compound 3.16 µM): 69.9% | viability, T/C (second compound 0.1 µM, first compound 10 µM): 3.51% | viability, T/C (second compound 0.316 µM, first compound 0.0316 µM): 103% | viability, T/C (second compound 0.316 µM, first compound 0.1 µM): 103% | viability, T/C (second compound 0.316 µM, first compound 0.316 µM): 109% | viability, T/C (second compound 0.316 µM, first compound 1 µM): 102% | viability, T/C (second compound 0.316 µM, first compound 3.16 µM): 73.3% | viability, T/C (second compound 0.316 µM, first compound 10 µM): 4.84% | viability, T/C (second compound 1 µM, first compound 0.0316 µM): 108% | viability, T/C (second compound 1 µM, first compound 0.1 µM): 98.1% | viability, T/C (second compound 1 µM, first compound 0.316 µM): 106% | viability, T/C (second compound 1 µM, first compound 1 µM): 102% | viability, T/C (second compound 1 µM, first compound 3.16 µM): 58.8% | viability, T/C (second compound 1 µM, first compound 10 µM): 4.52%
